Converted amounts (≈) assume the structure as drawn. Read-outs that look alike come from different tables or passages of the source.
Experiments:
S. aureus ATCC 29213 = test: MIC determination, S. aureus ATCC 29213; type: cell-based, Staphylococcus aureus; conditions: for MIC: Staphylococcus aureus, read-out: MIC S. aureus ATCC 29213
[1] = tested on: S. epidermidis ATCC 12228; test: MIC determination, S. epidermidis ATCC 12228; type: cell-based, Staphylococcus epidermidis; conditions: for MIC: Staphylococcus epidermidis, read-out: MIC S. epidermidis ATCC 12228
S. pneumoniae ATCC 6301 = test: MIC determination, S. pneumoniae ATCC 6301; type: cell-based, Streptococcus pneumoniae; conditions: for MIC: Streptococcus pneumoniae; for MIC S. pneumoniae ATCC 6301: Table 1
E. faecalis ATCC 29212 = test: MIC determination, E. faecalis ATCC 29212; type: cell-based, Enterococcus faecalis; conditions: for MIC: Enterococcus faecalis, read-out: MIC E. faecalis ATCC 29212
E. faecium CT-26 = test: MIC determination, E. faecium CT-26; type: cell-based, Enterococcus faecium; conditions: for MIC: Enterococcus faecium, read-out: MIC E. faecium CT-26
[2] = tested on: M. catarrhalis ATCC 25238; test: MIC determination, M. catarrhalis ATCC 25238; type: cell-based; conditions: for MIC: Moraxella catarrhalis, ATCC25238, Table 1, read-out: MIC M. catarrhalis ATCC 25238; for MIC M. catarrhalis ATCC 25238: Table 1
H. influenzae ATCC 49766 = test: MIC determination, H. influenzae ATCC 49766; type: cell-based, Haemophilus influenzae; conditions: Table 2; for MIC: Haemophilus influenzae, ATCC49766
M. tuberculosis H37Rv = test: Anti-mycobacterium in vitro activity, H37Rv; type: cell-based, Mycobacterium tuberculosis; conditions: Sensitive strain; for MIC: Mycobacterium tuberculosis, H37RV
[3] = ATCC6301, Table 1, read-out: MIC S. pneumoniae ATCC 6301
[4] = ATCC6301, Table 2, read-out: MIC S. pneumonia ATCC 6301

Structure (SMILES): Cc1onc(-c2ccccc2Cl)c1C(=O)N[C@@H]1C(=O)N2[C@@H]1SC(C)(C)[C@@H]2C(=O)O [Cloxacillin, reference compound]
- MIC (S. aureus ATCC 29213; ATCC29213, Table 1): 0.125 µg/mL (≈ 0.287 µM)
- MIC (S. aureus ATCC 29213; ATCC29213, Table 2): 0.12 µg/mL (≈ 0.275 µM)
- MIC ([1]; ATCC12228, Table 1): 0.25 µg/mL (≈ 0.574 µM)
- MIC ([1]; ATCC12228, Table 2): 0.25 µg/mL (≈ 0.574 µM)
- MIC (S. pneumoniae ATCC 6301; [3]): 0.125 µg/mL (≈ 0.287 µM)
- MIC (S. pneumoniae ATCC 6301; [4]): 0.12 µg/mL (≈ 0.275 µM)
- MIC (E. faecalis ATCC 29212; ATCC29212, Table 1): 16 µg/mL (≈ 36.7 µM)
- MIC (E. faecalis ATCC 29212; ATCC29212, Table 2): 16 µg/mL (≈ 36.7 µM)
- MIC (E. faecium CT-26; CT26, Table 1): 64 µg/mL (≈ 147 µM)
- MIC (E. faecium CT-26; CT26, Table 2): 64 µg/mL (≈ 147 µM)
- MIC [2]: 1 µg/mL (≈ 2.29 µM)
- MIC (H. influenzae ATCC 49766): 8 µg/mL (≈ 18.4 µM)

Structure (SMILES): CC[C@@H](CO)NCCN[C@@H](CC)CO [Ethambutol]
- MIC (M. tuberculosis H37Rv): < 1 µg/mL

Structure (SMILES): CCc1cc(C(N)=S)ccn1 [Ethionamide]
- MIC (M. tuberculosis H37Rv): 1 µg/mL (≈ 6.02 µM)

Structure (SMILES): C[C@@H](O)[C@H]1C(=O)N2C(C(=O)O)=C(SCCN=CN)C[C@H]12 [Imipenem, reference compound]
- MIC (S. aureus ATCC 29213; ATCC29213, Table 1): 0.125 µg/mL (≈ 0.418 µM)
- MIC (S. aureus ATCC 29213; ATCC29213, Table 2): 0.12 µg/mL (≈ 0.401 µM)
- MIC ([1]; ATCC12228, Table 1): 0.125 µg/mL (≈ 0.418 µM)
- MIC ([1]; ATCC12228, Table 2): 0.12 µg/mL (≈ 0.401 µM)
- MIC (S. pneumoniae ATCC 6301; [3]): 0.125 µg/mL (≈ 0.418 µM)
- MIC (S. pneumoniae ATCC 6301; [4]): < 0.125 µg/mL
- MIC (E. faecalis ATCC 29212; ATCC29212, Table 1): 1 µg/mL (≈ 3.34 µM)
- MIC (E. faecalis ATCC 29212; ATCC29212, Table 2): 1 µg/mL (≈ 3.34 µM)
- MIC (E. faecium CT-26; CT26, Table 1): 64 µg/mL (≈ 214 µM)
- MIC (E. faecium CT-26; CT26, Table 2): 64 µg/mL (≈ 214 µM)
- MIC [2]: 0.125 µg/mL (≈ 0.418 µM)
- MIC (H. influenzae ATCC 49766): 2 µg/mL (≈ 6.68 µM)

Structure (SMILES): Nc1ccc(C(=O)O)c(O)c1 [p-aminosalicylate]
- M. tuberculosis MIC H37Rv (M. tuberculosis H37Rv): <0.25 µg/mL

Structure (SMILES): Oc1cccc2cccnc12 [Compound 50, 8-hydroxyquinoline]
- MIC S. aureus ATCC 29213 (S. aureus ATCC 29213; Table 1): 2 micrograms per ml
- MIC S. epidermidis ATCC 12228 ([1]; Table 1): 2 micrograms per ml
- MIC S. pneumoniae ATCC 6301 (S. pneumoniae ATCC 6301): 2 micrograms per ml
- MIC E. faecalis ATCC 29212 (E. faecalis ATCC 29212; Table 1): 4 micrograms per ml
- MIC E. faecium CT-26 (E. faecium CT-26; Table 1): 4 micrograms per ml
- M. tuberculosis MIC H37Rv (M. tuberculosis H37Rv): 0.387 µg/mL

Structure (SMILES): Oc1cccc2cccnc12 [Compound 75, 8-hydroxyquinoline]
- MIC S. aureus ATCC 29213 (S. aureus ATCC 29213; Table 1): 2 micrograms per ml
- MIC S. epidermidis ATCC 12228 ([1]; Table 1): 1 micrograms per ml
- MIC S. pneumoniae ATCC 6301 (S. pneumoniae ATCC 6301): 2 micrograms per ml
- MIC E. faecalis ATCC 29212 (E. faecalis ATCC 29212; Table 1): 64 micrograms per ml
- MIC E. faecium CT-26 (E. faecium CT-26; Table 1): 4 micrograms per ml
- M. tuberculosis MIC H37Rv (M. tuberculosis H37Rv): 0.775 µg/mL

Structure (SMILES): Oc1cccc2cccnc12 [Compound 10, 8-hydroxyquinoline]
- MIC S. aureus ATCC 29213 (S. aureus ATCC 29213; Table 1): 1 micrograms per ml
- MIC S. epidermidis ATCC 12228 ([1]; Table 1): 2 micrograms per ml
- MIC S. pneumoniae ATCC 6301 (S. pneumoniae ATCC 6301): 2 micrograms per ml
- MIC E. faecalis ATCC 29212 (E. faecalis ATCC 29212; Table 1): 32 micrograms per ml
- MIC E. faecium CT-26 (E. faecium CT-26; Table 1): 4 micrograms per ml
- M. tuberculosis MIC H37Rv (M. tuberculosis H37Rv): 0.387 µg/mL

Structure (SMILES): Oc1cccc2cccnc12 [Compound 65, 8-hydroxyquinoline]
- MIC S. aureus ATCC 29213 (S. aureus ATCC 29213; Table 1): 2 micrograms per ml
- MIC S. epidermidis ATCC 12228 ([1]; Table 1): 2 micrograms per ml
- MIC S. pneumoniae ATCC 6301 (S. pneumoniae ATCC 6301): 2 micrograms per ml
- MIC E. faecalis ATCC 29212 (E. faecalis ATCC 29212; Table 1): 16 micrograms per ml
- MIC E. faecium CT-26 (E. faecium CT-26; Table 1): 4 micrograms per ml
- MIC M. catarrhalis ATCC 25238 [2]: 4 micrograms per ml
- M. tuberculosis MIC H37Rv (M. tuberculosis H37Rv): 0.775 µg/mL

Structure (SMILES): CC1COc2c(N3CCN(C)CC3)c(F)cc3c(=O)c(C(=O)O)cn1c23 (centres unmarked) [Ofloxacin]
- MIC (M. tuberculosis H37Rv): 4 µg/mL (≈ 11.1 µM)

Structure (SMILES): CC1(C)S[C@@H]2[C@H](NC(=O)Cc3ccccc3)C(=O)N2[C@H]1C(=O)O [Pen G, reference compound]
- MIC S. aureus ATCC 29213 (S. aureus ATCC 29213; Table 1): 0.5 micrograms per ml
- MIC S. aureus ATCC 29213 (S. aureus ATCC 29213; Table 2): 0.5 micrograms per ml
- MIC S. epidermidis ATCC 12228 ([1]; Table 1): 16 micrograms per ml
- MIC S. epidermidis ATCC 12228 ([1]; Table 2): 16 micrograms per ml
- MIC S. pneumoniae ATCC 6301 (S. pneumoniae ATCC 6301): 0.125 micrograms per ml
- MIC S. pneumonia ATCC 6301 (S. pneumoniae ATCC 6301; Table 2): <0.125 micrograms per ml
- MIC E. faecalis ATCC 29212 (E. faecalis ATCC 29212; Table 1): 1 micrograms per ml
- MIC E. faecalis ATCC 29212 (E. faecalis ATCC 29212; Table 2): 1 micrograms per ml
- MIC E. faecium CT-26 (E. faecium CT-26; Table 1): 32 micrograms per ml
- MIC E. faecium CT-26 (E. faecium CT-26; Table 2): 32 micrograms per ml
- MIC M. catarrhalis ATCC 25238 [2]: 0.125 micrograms per ml
- MIC H. influenzae ATCC 49766 (H. influenzae ATCC 49766): 0.12 micrograms per ml
